Legend:
Carboplatin = compound: C1CC(C1)(C(=O)[O-])C(=O)[O-].N.N.[Pt+2] [Carboplatin]; details: max 10 µM
Method in brief: (§1)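 Cancer cell lines were dosed for 72 hours (final DMSO typically 0.2%) after 24 hours at 37°C and 5% CO2 in 1536-well plates containing 7.5 μl DMEM/F12 or RPMI with 10% FBS. Viability came from CellTiter-Glo 2.0 luminescence, scaled between blank-well and DMSO-well means, and dose responses were fitted to a two-parameter logistic curve with a non-linear mixed effects model. The single-agent IC50 was obtained from this fit.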

AZD5363 = compound: C1CN(CCC1(C(=O)N[C@@H](CCO)C2=CC=C(C=C2)Cl)N)C3=NC=NC4=C3C=CN4 [AZD5363]; details: max 10 µM
Method in brief: as §1

AZD1775 = compound: C=CCn1c(=O)c2cnc(Nc3ccc(N4CCN(C)CC4)cc3)nc2n1-c1cccc(C(C)(C)O)n1 [AZD1775]; details: max 3 µM
Method in brief: as §1

Trametinib = compound: CC(=O)Nc1cccc(-n2c(=O)n(C3CC3)c(=O)c3c(Nc4ccc(I)cc4F)n(C)c(=O)c(C)c32)c1 [Trametinib]; details: max 1 µM
Method in brief: as §1

Paclitaxel = compound: CC(=O)O[C@H]1C(=O)[C@@]2(C)[C@H]([C@H](OC(=O)c3ccccc3)[C@]3(O)C[C@H](OC(=O)[C@H](O)[C@@H](NC(=O)c4ccccc4)c4ccccc4)C(C)=C1C3(C)C)[C@]1(OC(C)=O)CO[C@@H]1C[C@@H]2O [Paclitaxel]; details: max 3 µM
Method in brief: as §1

Palbociclib = compound: CC(=O)c1c(C)c2cnc(Nc3ccc(N4CCNCC4)cn3)nc2n(C2CCCC2)c1=O [Palbociclib]; details: max 10 µM
Method in brief: as §1

AZD1390 = compound: CC(C)n1c(=O)n(C)c2cnc3cc(F)c(-c4ccc(OCCCN5CCCCC5)nc4)cc3c21 [AZD1390]; details: max 0.3 µM
Method in brief: as §1

Venetoclax = compound: CC1(C)CCC(CN2CCN(c3ccc(C(=O)NS(=O)(=O)c4ccc(NCC5CCOCC5)c([N+](=O)[O-])c4)c(Oc4cnc5[nH]ccc5c4)c3)CC2)=C(c2ccc(Cl)cc2)C1 [Venetoclax]; details: max 1 µM
Method in brief: as §1

Dasatinib = compound: CC1=C(C(=CC=C1)Cl)NC(=O)C2=CN=C(S2)NC3=CC(=NC(=N3)C)N4CCN(CC4)CCO [Dasatinib]; details: max 2 µM
Method in brief: as §1

SG3199 = compound: CC1=CN2[C@@H](C1)C=NC3=CC(=C(C=C3C2=O)OC)OCCCCCOC4=C(C=C5C(=C4)N=C[C@@H]6CC(=CN6C5=O)C)OC [SG3199]; details: max 0.001 µM
Method in brief: as §1

AZD2811 = compound: CCN(CCO)CCCOc1ccc2c(Nc3cc(CC(=O)Nc4cccc(F)c4)[nH]n3)ncnc2c1 [AZD2811]; details: max 1 µM
Method in brief: as §1

SN-38 = compound: CCc1c2c(nc3ccc(O)cc13)-c1cc3c(c(=O)n1C2)COC(=O)[C@]3(O)CC [SN-38]; details: max 0.3 µM
Method in brief: as §1

AZD0156 = compound: CN(C)CCCOc1ccc(-c2ccc3ncc4c(c3c2)n(C2CCOCC2)c(=O)n4C)cn1 [AZD0156]; details: max 3 µM
Method in brief: as §1

AZD4320 = compound: CN(CC[C@H](CSC1=CC=CC=C1)NC2=C(C=C(C=C2)S(=O)(=O)NC(=O)C3=CC=C(C=C3)N4CCC(CC4)[C@H](C5=CC=CC=C5C6=CC=C(C=C6)Cl)O)S(=O)(=O)C(F)(F)F)CCO [AZD4320]; details: max 1 µM
Method in brief: as §1

Alisertib = compound: COc1cc(Nc2ncc3c(n2)-c2ccc(Cl)cc2C(c2c(F)cccc2OC)=NC3)ccc1C(=O)O [Alisertib]; details: max 10 µM
Method in brief: as §1

Etoposide = compound: COc1cc([C@@H]2c3cc4c(cc3[C@@H](O[C@@H]3O[C@@H]5CO[C@@H](C)O[C@H]5[C@H](O)[C@H]3O)[C@H]3COC(=O)[C@H]23)OCO4)cc(OC)c1O [Etoposide]; details: max 10 µM
Method in brief: as §1

Gefitinib = compound: COc1cc2ncnc(Nc3ccc(F)c(Cl)c3)c2cc1OCCCN1CCOCC1 [Gefitinib]; details: max 10 µM
Method in brief: as §1

Prexasertib = compound: COc1cccc(OCCCN)c1-c1cc(Nc2cnc(C#N)cn2)n[nH]1 [Prexasertib]; details: max 1 µM
Method in brief: as §1

Doxorubicin = compound: COc1cccc2c1C(=O)c1c(O)c3c(c(O)c1C2=O)C[C@@](O)(C(=O)CO)C[C@@H]3O[C@H]1C[C@H](N)[C@H](O)[C@H](C)O1 [Doxorubicin]; details: max 1 µM
Method in brief: as §1

AZD5153 = compound: COc1nnc2ccc(N3CCC(c4ccc(OCCN5CCN(C)C(=O)[C@H]5C)cc4)CC3)nn12 [AZD5153]; details: max 1 µM
Method in brief: as §1

Lapatinib = compound: CS(=O)(=O)CCNCc1ccc(-c2ccc3ncnc(Nc4ccc(OCc5cccc(F)c5)c(Cl)c4)c3c2)o1 [Lapatinib]; details: max 10 µM
Method in brief: as §1

AZD8186 = compound: C[C@@H](Nc1cc(F)cc(F)c1)c1cc(C(=O)N(C)C)cc2c(=O)cc(N3CCOCC3)oc12 [AZD8186]; details: max 10 µM
Method in brief: as §1

Crizotinib = compound: C[C@@H](Oc1cc(-c2cnn(C3CCNCC3)c2)cnc1N)c1c(Cl)ccc(F)c1Cl [Crizotinib]; details: max 10 µM
Method in brief: as §1

Savolitinib = compound: C[C@@H](c1ccc2nccn2c1)n1nnc2ncc(-c3cnn(C)c3)nc21 [Savolitinib]; details: max 1 µM
Method in brief: as §1

AZD6738 = compound: C[C@@H]1COCCN1C2=NC(=NC(=C2)C3(CC3)[S@](=N)(=O)C)C4=C5C=CNC5=NC=C4 [AZD6738]; details: max 10 µM
Method in brief: as §1

AZD5991 = compound: Cc1c2c(nn1C)CSCc1cc(n(C)n1)CSc1cc(c3ccccc3c1)OCCCc1c(C(=O)O)n(C)c3c-2c(Cl)ccc13 [AZD5991]; details: max 1 µM
Method in brief: as §1

AZD7648 = compound: Cc1cc2ncnn2cc1Nc1ncc2c(n1)n(C1CCOCC1)c(=O)n2C [AZD7648]; details: max 10 µM
Method in brief: as §1

Taselisib = compound: Cc1nc(-c2cn3c(n2)-c2ccc(-c4cnn(C(C)(C)C(N)=O)c4)cc2OCC3)n(C(C)C)n1 [Taselisib]; details: max 10 µM
Method in brief: as §1

Selumetinib = compound: Cn1cnc2c(F)c(Nc3ccc(Br)cc3Cl)c(C(=O)NOCCO)cc21 [Selumetinib]; details: max 10 µM
Method in brief: as §1

SRA737 = compound: N#Cc1cnc(Nc2cc(NC[C@H]3CNCCO3)c(C(F)(F)F)cn2)cn1 [SRA737]; details: max 10 µM
Method in brief: as §1

MK-2206 = compound: NC1(c2ccc(-c3nc4ccn5c(=O)[nH]nc5c4cc3-c3ccccc3)cc2)CCC1 [MK-2206]; details: max 10 µM
Method in brief: as §1

Gemcitabine = compound: Nc1ccn([C@@H]2O[C@H](CO)[C@@H](O)C2(F)F)c(=O)n1 [Gemcitabine]; details: max 0.3 µM
Method in brief: as §1

[1] = compound: O=C(Nc1ccc2[nH]nc(-c3ccncc3)c2c1)[C@@H]1CCN(CC(=O)N2CCN(c3ccc(-c4ncccn4)cc3)CC2)C1; details: max 5 µM
Method in brief: as §1

Olaparib = compound: O=C(c1cc(Cc2n[nH]c(=O)c3ccccc23)ccc1F)N1CCN(C(=O)C2CC2)CC1 [Olaparib]; details: max 10 µM
Method in brief: as §1

5-Fluorouracil = compound: O=c1[nH]cc(F)c(=O)[nH]1 [5-Fluorouracil]; details: max 20 µM
Method in brief: as §1

| Cell Line | IC50, cell viability 72 h (Carboplatin) | IC50, cell viability 72 h (AZD5363) | IC50, cell viability 72 h (AZD1775) | IC50, cell viability 72 h (Trametinib) | IC50, cell viability 72 h (Paclitaxel) | IC50, cell viability 72 h (Palbociclib) | IC50, cell viability 72 h (AZD1390) | IC50, cell viability 72 h (Venetoclax) | IC50, cell viability 72 h (Dasatinib) | IC50, cell viability 72 h (SG3199) | IC50, cell viability 72 h (AZD2811) | IC50, cell viability 72 h (SN-38) | IC50, cell viability 72 h (AZD0156) | IC50, cell viability 72 h (AZD4320) | IC50, cell viability 72 h (Alisertib) | IC50, cell viability 72 h (Etoposide) | IC50, cell viability 72 h (Gefitinib) | IC50, cell viability 72 h (Prexasertib) | IC50, cell viability 72 h (Doxorubicin) | IC50, cell viability 72 h (AZD5153) | IC50, cell viability 72 h (Lapatinib) | IC50, cell viability 72 h (AZD8186) | IC50, cell viability 72 h (Crizotinib) | IC50, cell viability 72 h (Savolitinib) | IC50, cell viability 72 h (AZD6738) | IC50, cell viability 72 h (AZD5991) | IC50, cell viability 72 h (AZD7648) | IC50, cell viability 72 h (Taselisib) | IC50, cell viability 72 h (Selumetinib) | IC50, cell viability 72 h (SRA737) | IC50, cell viability 72 h (MK-2206) | IC50, cell viability 72 h (Gemcitabine) | IC50, cell viability 72 h [1] | IC50, cell viability 72 h (Olaparib) | IC50, cell viability 72 h (5-Fluorouracil) |
| --- | --- | --- | --- | --- | --- | --- | --- | --- | --- | --- | --- | --- | --- | --- | --- | --- | --- | --- | --- | --- | --- | --- | --- | --- | --- | --- | --- | --- | --- | --- | --- | --- | --- | --- | --- |
| EW-3 (Ewing's Sarcoma) | > 10000 nM | > 10000 nM | 2300 nM | > 1000 nM | 17.5 nM | > 10000 nM | > 300 nM | 401 nM | > 2000 nM | > 1 nM | > 1000 nM | 2.07 nM | > 3000 nM | 27.6 nM | 8570 nM | 1100 nM | > 10000 nM | 183 nM | 86.7 nM | 496 nM | > 10000 nM | > 10000 nM | 9570 nM | > 1000 nM | 2030 nM | 470 nM | > 10000 nM | > 10000 nM | > 10000 nM | > 10000 nM | > 10000 nM | 8.11 nM | > 5000 nM | > 10000 nM | > 20000 nM |
| GI-1 (Glioblastoma) | > 10000 nM | 7330 nM | 755 nM | > 1000 nM | 10.2 nM | > 10000 nM | > 300 nM | > 1000 nM | > 2000 nM | > 1 nM | > 1000 nM | 9.55 nM | > 3000 nM | > 1000 nM | > 10000 nM | 4030 nM | > 10000 nM | 17.8 nM | 670 nM | 303 nM | > 10000 nM | 9590 nM | 5430 nM | > 1000 nM | 2100 nM | 737 nM | > 10000 nM | 3040 nM | > 10000 nM | 3870 nM | > 10000 nM | 53.3 nM | > 5000 nM | > 10000 nM | > 20000 nM |
| H-EMC-SS (Chondrosarcoma) | > 10000 nM | > 10000 nM | > 3000 nM | 293 nM | > 3000 nM | > 10000 nM | > 300 nM | > 1000 nM | > 2000 nM | > 1 nM | > 1000 nM | 153 nM | > 3000 nM | > 1000 nM | 8380 nM | > 10000 nM | > 10000 nM | > 1000 nM | 428 nM | > 1000 nM | > 10000 nM | > 10000 nM | > 10000 nM | > 1000 nM | > 10000 nM | > 1000 nM | > 10000 nM | 3360 nM | > 10000 nM | > 10000 nM | > 10000 nM | > 300 nM | > 5000 nM | > 10000 nM | > 20000 nM |
| HSC-2 (Oral Cavity Carcinoma) | > 10000 nM | > 10000 nM | 2130 nM | > 1000 nM | 3.31 nM | > 10000 nM | > 300 nM | > 1000 nM | 176 nM | > 1 nM | > 1000 nM | 5.35 nM | > 3000 nM | > 1000 nM | 2400 nM | 4420 nM | 3960 nM | 124 nM | 367 nM | 238 nM | 4010 nM | > 10000 nM | > 10000 nM | > 1000 nM | 8500 nM | 439 nM | > 10000 nM | 171 nM | > 10000 nM | > 10000 nM | > 10000 nM | 18.2 nM | > 5000 nM | > 10000 nM | > 20000 nM |
| JHH-7 (Hepatocellular Carcinoma) | > 10000 nM | > 10000 nM | 2610 nM | > 1000 nM | 660 nM | > 10000 nM | > 300 nM | > 1000 nM | > 2000 nM | > 1 nM | > 1000 nM | > 300 nM | > 3000 nM | > 1000 nM | > 10000 nM | > 10000 nM | > 10000 nM | > 1000 nM | > 1000 nM | > 1000 nM | > 10000 nM | > 10000 nM | > 10000 nM | > 1000 nM | > 10000 nM | > 1000 nM | > 10000 nM | > 10000 nM | > 10000 nM | > 10000 nM | > 10000 nM | > 300 nM | > 5000 nM | > 10000 nM | > 20000 nM |
